{"source": "patent US20080171070A1", "about": "“Polyelectrolyte Multilayer Film, Preparation And Uses Thereof” (priority 2005, published 2008)", "key": {"[1]": {"tested_on": "human macrophages", "test": "Stimulation assay: TNF-α production (ELISA) by macrophages seeded on PA-containing polyelectrolyte multilayers", "assay_type": "cell-based", "text": "Cell Culture. Whole blood samples were purchased at the “Etablissement Français du Sang” (EFS, Strasbourg, France). Peripheral mononuclear blood cells (PBMC) from healthy individuals, seronegative for […] and hepatitis B and C were isolated from buffy coat by Ficoll/Hypaque centrifugation and were washed twice in phosphate-buffered saline without Ca^2+/Mg^2+. Monocytes were isolated from whole-blood and separated by counter-current centrifugal elutriation of the peripheral mononuclear cells.^[40] Purity was measured by flow cytometry staining with fluorochrome antibodies (Becton Dickinson, PharMingen, San Diego, Calif.) to CD3 (T cells), CD19 (B cells), CD14 (monocytes) and CD45 (leukocytes). Monocytes were diluted at 1.5×10^6 cells mL^−1 in AIM lymphocytes SVF free medium with Glutamax, 100 U mL^−1 GM-CSF (PeproTech, Rocky Hill, USA). Culture medium was changed after 3 days of culture, and at day 5 macrophages were washed twice with RPMI at 37° C.\nPolyelectrolyte multilayered film preparation. Polyelectrolyte multilayers were always prepared on glass coverslips (CML, France) pretreated for 15 min at 100° C. with 10^−2 M SDS and 0.12 N HCl, and then extensively rinsed with deionised water. Glass coverslips were deposited in 24-well plates (Nunc, Denmark). All the solutions (polyelectrolyte, PA and rinsing) used for the film constructions contained 0.15 M NaCl with a pH adjusted to 7.4. At this pH both polylysine and polyglutamic acid are almost fully charged, be they l or d enantiomers so that they should not form stereocomplexes in solution. The films were constructed with polyelectrolyte (resp. PA) solutions at 1 mg·mL^−1 (resp. 200 μg·mL^−1) of polyelectrolytes (resp. PA). The film construction was performed as follows: First a precursor film constituted by (PlL/PlGA)5-PlL was built. In each deposition step, the surface is brought in contact with the polyelectrolyte solution for 20 mins followed by another contact with the rinsing solution for 5 mins. This rinsing step is repeated 3 times before adsorption of the polyelectrolyte of opposite charge. After the buildup of the precursor film, PA was adsorbed on the positively charged PlL terminating the precursor film during an overnight contact with PA solution. This film was then rinsed and the additional (PL/PGA)n-PL film was built by using PL and PGA solutions containing (x/100) mg·mL^−1 of PdL (resp. PdGA) and (1-x/100) mg·mL^−1 of PlL (resp. PlGA). All the films were then sterilized for 10 mins by ultraviolet light (254 nm). Before use, the architectures were put in contact with 1 mL of RPMI without serum during 24 h. It is possible that when the films are brought in contact with the culture medium, their structure and thickness change, the structure of the multilayers being dependent on many different physico-chemical parameters.^[41-43] However, such changes cannot explain the different biological effects that are observed in this study. […] One can also notice that the films were built at room temperature whereas the experiments with cells were realized at 37° C.\nStimulation assays. Stimulation assays involving polyelectrolyte films were conducted by seeding 5×10^5 cells (macrophages) onto the PA-containing polyelectrolyte multilayers prepared on glass coverslips and placed into the wells of 24-well plates. TNF-α production by cells was measured by ELISA. TNF-α levels were detected by an enzyme immunoassay (Endogen Products, Woburn, Mass.). All experiments were repeated twice and were performed at 37° C.\nFor multilayer films containing embedded PA, the proteins were always adsorbed on a (PlL/PlGA)5-PlL precursor film in order to keep the adsorption process (in particular the amount of adsorbed proteins) unaffected by the d/l composition of the film. The multilayer with a given d/l composition was then further deposited on top of the (PlL/PlGA)5-PlL-PA architecture and is constituted by n additional pairs of layers. […]"}, "[2]": {"test": "FTIR spectroscopy in transmission mode, amide-I spectra of protein A with polypeptides", "assay_type": "physicochemical", "settings": "protein A with PlL and/or PdL, 1 mg mL^−1 each, D2O, 0.15M NaCl", "experimental": "FTIR Spectroscopy in transmission mode. Transmission spectra were measured on an EQUINOX 55 spectrophotometer (Bruker, Wissembourg, France) using a DTGS detector. Solutions were flown into a sample cell holder (SPECAC P/N 20510). Transmission spectra were measured by using CaF2 windows. Single channel spectra from 128 interferograms were calculated between 4000 and 400 cm^−1 with 2 cm^−1 resolution, using Blackman-Harris three-term apodization and Mertz phase correction with the standard Bruker OPUS/IR software (Version 3.0.4). Each sample (aqueous solution of polypeptide or protein A or both) was prepared at a concentration of 1 mg mL^−1 of each component, in a D2O, 0.15M NaCl (purchased from Prolabo) solution."}, "[3]": {"tested_on": "human macrophages", "settings": "cited from earlier work"}, "[4]": {"tested_on": "cells", "settings": "replacement of PlL by PdL in the film; cited from earlier work"}, "[5]": {"tested_on": "macrophages", "test": "Confocal laser scanning microscopy of films in contact with cells (film degradation, contact with embedded protein A)", "assay_type": "cell-based, human", "settings": "protein A embedded under 20 pairs of (PlGA/PlL) layers", "experimental": "Confocal laser scanning microscopy. For the confocal laser scanning microscopy (CLSM) based investigations, the films were imaged in liquid conditions. CLSM observations were carried out with a Zeiss LSM 510 microscope using a ×40/1.4 oil immersion objective and with 0.4 μm z-section intervals. FITC fluorescence was detected after excitation at 488 nm, cutoff dichroic mirror 488 nm, and emission band pass filter 505-530 nm (green). Virtual vertical sections can be visualized, allowing the thickness of the film to be determined.\nIn previous experiments, the inventors could visualize the pseudopods developing through the multilayer down to the protein A layer.^[19] […] The progressive degradation of the (PlGA/PlL)n film as a function of contact time with the cells is visualized in FIGS. 2a-2c.\nThe inventors have seen that the film thickness depends upon the d/l ratio of the build-up polyelectrolyte solutions and in particular that it decreases when x increases from 0 up to 50%. On the other hand, for a given number of deposited pairs of layers, the biological activity decreases when x increases. The variations of the biological effects can thus not be attributed to changes of the film thickness with x. The biological effects can rather be explained by a continuous degradation and pseudopod development through the multilayered films^[19] as already found on (PlL/PlGA)n films. […]"}}}
{"substance": "PA: Staphylococcus aureus protein A, MW=42,000 Da, from Sigma; embedded in the multilayer films as model active ingredient", "values": [{"measurement": "TNF-α production (biological activity)", "setting": "[1]; d content between 10 and 20%, all embedding depths up to n=20, after 4 hours of contact", "result": "full activity"}, {"measurement": "TNF-α production (biological activity)", "setting": "[1]; d content between 10 and 20%, embedding depth exceeds 15 pairs of layers, after 4 hours of contact", "result": "reaches its full activity"}, {"measurement": "TNF-α production (biological response)", "setting": "[1]; d content between 10 and 20%, embedding depth exceeds 15 pairs of layers, initial 3 hours of contact", "result": "no biological response"}, {"measurement": "TNF-α production (biological activity), time course", "setting": "[1]; d content between 10 and 20%, embedding depths up to 5 pairs of layers", "result": "increases continuously in time, the plateau value being reached after 4 hours of contact"}, {"measurement": "TNF-α production (cellular response)", "setting": "[1]; n=0: PA adsorbed on top of the film, direct contact with cells, lasts at least up to 6 hours", "result": "rapid cellular response is observed already after one hour of contact"}, {"measurement": "TNF-α production (biological activity)", "setting": "[1]; x between 30 and 40%, PA embedded under 1 layer pair", "result": "gradually increases after 2 hours of contact"}, {"measurement": "TNF-α production (biological activity)", "setting": "[1]; x between 30 and 40%, embedded under 5 pairs of layers, after 6 hours of contact", "result": "fully active"}, {"measurement": "TNF-α production (biological activity)", "setting": "[1]; x between 30 and 40%, embedded under 5 pairs of layers, first 4 hours", "result": "totally suppressed"}, {"measurement": "TNF-α production (biological activity)", "setting": "[1]; x between 30 and 40%, embedded under 15 pairs of layers or more, first 6 hours of contact", "result": "no longer acts on cells"}, {"measurement": "TNF-α production (biological activity)", "setting": "[1]; x equals 50% or more of d enantiomer, PA embedded under a (PL/PGA/PL) trilayer", "result": "totally suppressed"}, {"measurement": "Effect of polypeptide interaction on secondary structure of protein A (amide-I spectra)", "setting": "[2]", "result": "do not affect the secondary structure of protein A"}, {"measurement": "Cytokine expression on PA stimulation", "setting": "[3]", "result": "rapid expression of both the pro-inflammatory cytokine TNF-α and the anti-inflammatory cytokine IL-10"}, {"measurement": "Cellular communication with embedded PA", "setting": "[4]", "result": "prevents cellular communication with embedded PA"}, {"measurement": "Contact of macrophages with embedded protein A (CLSM)", "setting": "[5]", "result": "come into contact with protein A"}]}
